The source of these data is patent publication US20150366847A1, “COMBINATION OF GERANYLGERANYLACETONE AND IBUDILAST AND METHODS OF USING SAME” (MediciNova, Inc., priority 2014, published 2015).

One experiment has as its system animal model for ALS. The experiment can be described thus: Rat model of ALS, brain mass. The format is in vivo.
Experiment [1] deals with animal model for Parkinson's disease. The experiment can be described thus: Rat model of Parkinson's disease, brain mass. The format is in vivo.
The test system of experiment [2] is heat shock protein 70 (HSP70). The settings on record: mice subjected to an occlusion of the middle cerebral artery; cited from earlier work.

As to `CC(C)C(=O)c1c(C(C)C)nn2ccccc12` [ibudilast, 3-isobutyryl-2-isopropylpyrazolo[1,5-a]pyridine], the brain mass entry (in the experiment on animal model for ALS; in experiment [1]) was “increase brain mass” in each case.

With `CC(=O)CCC=C(C)CC/C=C(\C)CC/C=C(\C)CCC=C(C)C` (mixture of isomers) [GGA, Geranylgeranyl acetone], the “induction of heat shock protein 70 (HSP70)” value in experiment [2] is listed as “inducer of heat shock protein 70 (HSP70)”.
